Measurements published in EP0075095A2, “Cephalosporin derivatives, process for their preparation, pharmaceutical compositions containing them and intermediates” (F. HOFFMANN-LA ROCHE & CO. Aktiengesellschaft, priority 1981, dated 1983).

Key:
[1] = test system: Serratia marcescens; experiment: Oral antimicrobial activity in vivo in the mouse (curative dose CD50), Serratia marcescens infection; parameters: species or system Maus; conditions: peroral dose at which 50% of tested mice survive, read-out: CD50, p.o.
From the text: (§1) Die orale antimikrobielle Wirksamkeit der erwähnten Produkte kann anhand von in-vivo-Versuchen an der Maus nachgewiesen werden. Im nachstehenden bedeutet die kurative Dosis (CD50, p.o., mg/kg) diejenige perorale Dosis, bei der 50% der getesteten Mäuse überleben.
(§2) Ergebnis (CD50, p.o., mg/kg)

[2] = test system: Streptococcus pyogenes; experiment: Oral antimicrobial activity in vivo in the mouse (curative dose CD50), Streptococcus pyogenes infection; parameters: species or system Maus; conditions: peroral dose at which 50% of tested mice survive, read-out: CD50, p.o.
From the text: as §1, §2

[3] = test system: Escherichia coli; experiment: Oral antimicrobial activity in vivo in the mouse (curative dose CD50), Escherichia coli infection; parameters: species or system Maus; conditions: peroral dose at which 50% of tested mice survive, read-out: CD50, p.o.
From the text: as §1, §2

[4] = test system: Klebsiella pneumoniae; experiment: Oral antimicrobial activity in vivo in the mouse (curative dose CD50), Klebsiella pneumoniae infection; parameters: species or system Maus; conditions: peroral dose at which 50% of tested mice survive, read-out: CD50, p.o.
From the text: as §1, §2

[5] = in vivo; conditions: mouse, po

Row | Structure (SMILES) | ED50 [1] | ED50 [2] | ED50 [3] | ED50 [4] | LD50 at 24 h [5]
1 | CC1=C(C(=O)O)N2C(=O)[C@@H](NC(=O)[C@H](N)c3ccccc3)[C@H]2SC1 [Cephalexin, reference compound] | > 50 mg/kg | 1.8 mg/kg | 3.2 mg/kg |  | 
2 | CO/N=C(\C(=O)N[C@@H]1C(=O)N2C(C(=O)OCOC(=O)C(C)(C)C)=C(CSc3nc(C(=O)OC)nn3C)CS[C@H]12)c1csc(N)n1 [Produkt A] | 1.5 mg/kg | 0.72 mg/kg | 0.07 mg/kg | 3.7 mg/kg | > 5000 mg/kg
3 | CCOC(=O)c1nc(SCC2=C(C(=O)OCOC(=O)C(C)(C)C)N3C(=O)[C@@H](NC(=O)/C(=N\OC)c4csc(N)n4)[C@H]3SC2)n(C)n1 [Produkt B] | 0.8 mg/kg | 2.1 mg/kg |  |  | > 5000 mg/kg
4 | CCn1nc(C(=O)OC)nc1SCC1=C(C(=O)OCOC(=O)C(C)(C)C)N2C(=O)[C@@H](NC(=O)/C(=N\OC)c3csc(N)n3)[C@H]2SC1 [Produkt C, Methylen-(6R,7R)-7-[(Z)-2-(2-Amino-4-thiazolyl)-2-(methoxyimino)acetamido]-3-[[[2-äthyl-5-(methoxycarbonyl)-2H-1,2,4-triazol-3-yl]thio]methyl]-8-oxo-5-thia-2-azabicyclo[4.2.0]oct-2-en-2-carboxylat-pivalat] | 2.54 mg/kg | 0.53 mg/kg |  |  | 
5 | CO/N=C(\C(=O)N[C@@H]1C(=O)N2C(C(=O)OCOC(=O)C(C)(C)C)=C(CSc3nc(C(=O)OC)nn3CC(=O)OCOC(=O)C(C)(C)C)CS[C@H]12)c1csc(N)n1 [Produkt D, Methylen-(6R,7R)-7-[(Z)-2-(2-Amino-4-thiazolyl)-2-(methoxyimino)-acetamido]-3-[[[5-(methoxycarbonyl)-2-[[[(pivaloyloxy)methoxy]-carbonyl]methyl]-2H-1,2,4-triazol-3-yl]thio]-methyl]-8-oxo-5-thia-1-azabicyclo[4.2.0]oct-2-en-2-carboxylat-pivalat] | > 6 mg/kg | 8.8 mg/kg |  | 12.5 mg/kg | > 5000 mg/kg
6 | CCCn1nc(C(=O)OC)nc1SCC1=C(C(=O)OCOC(=O)C(C)(C)C)N2C(=O)[C@@H](NC(=O)/C(=N\OC)c3csc(N)n3)[C@H]2SC1 [Produkt E] | 1.8 mg/kg | 0.89 mg/kg | 0.04 mg/kg | 2.5 mg/kg | > 5000 mg/kg
7 | CO/N=C(\C(=O)N[C@@H]1C(=O)N2C(C(=O)OCOC(=O)C(C)(C)C)=C(CSc3nc(C(=O)OC)nn3-c3ccccc3)CS[C@H]12)c1csc(N)n1 [Produkt F] | 5.8 mg/kg | 1.5 mg/kg |  | > 12 mg/kg | > 5000 mg/kg
